Test results reported in publication PMC8371461 (Frontiers in Pharmacology, 2021).

Key:
[1] = biological target: T1, ABL1(F317I)-nonphosphorylated (Homo sapiens, UniProt P00519, F317I); assay: kinome scan; type: binding; conditions: 10 µM
T1 construct: purchased DiscoverX (KINOMEscan)

[2] = biological target: T2, ABL1(Y253F)-phosphorylated (Homo sapiens, UniProt P00519, Y253F); assay: kinome scan; type: binding; conditions: 10 µM
T2 construct: purchased DiscoverX (KINOMEscan)

BMPR1A = biological target: T3, BMPR1A (Homo sapiens, UniProt P36894); assay: kinome scan; type: binding; conditions: 10 µM
T3 construct: purchased DiscoverX (KINOMEscan)

BRK = biological target: T4, BRK (Homo sapiens, UniProt Q13882); assay: kinome scan; type: binding; conditions: 10 µM
T4 construct: purchased DiscoverX (KINOMEscan)

CSK = biological target: T5, CSK (Homo sapiens, UniProt P41240); assay: kinome scan; type: binding; conditions: 10 µM
T5 construct: purchased DiscoverX (KINOMEscan)

CSNK2A1 = biological target: T6, CSNK2A1 (Homo sapiens, UniProt P68400); assay: kinome scan; type: binding; conditions: 10 µM
T6 construct: purchased DiscoverX (KINOMEscan)

DLK = biological target: T7, DLK (Homo sapiens, UniProt Q12852); assay: kinome scan; type: binding; conditions: 10 µM
T7 construct: purchased DiscoverX (KINOMEscan)

DMPK = biological target: T8, DMPK (Homo sapiens, UniProt Q09013); assay: kinome scan; type: binding; conditions: 10 µM
T8 construct: purchased DiscoverX (KINOMEscan)

EGFR(L858R) = biological target: T9, EGFR(L858R) (Homo sapiens, UniProt P00533, L858R); assay: kinome scan; type: binding; conditions: 10 µM
T9 construct: purchased DiscoverX (KINOMEscan)

EPHB6 = biological target: T10, EPHB6 (Homo sapiens, UniProt O15197); assay: kinome scan; type: binding; conditions: 10 µM
T10 construct: purchased DiscoverX (KINOMEscan)

ERBB4 = biological target: T11, ERBB4 (Homo sapiens, UniProt Q15303); assay: kinome scan; type: binding; conditions: 10 µM
T11 construct: purchased DiscoverX (KINOMEscan)

ERK3 = biological target: T12, ERK3 (Homo sapiens, UniProt Q16659); assay: kinome scan; type: binding; conditions: 10 µM
T12 construct: purchased DiscoverX (KINOMEscan)

ERN1 = biological target: T13, ERN1 (Homo sapiens, UniProt O75460); assay: kinome scan; type: binding; conditions: 10 µM
T13 construct: purchased DiscoverX (KINOMEscan)

FLT3 = biological target: T14, FLT3 (Homo sapiens, UniProt P36888); assay: kinome scan; type: binding
T14 construct: purchased DiscoverX (KINOMEscan)

FLT3(ITD) = assay: kinome scan; type: binding, human; conditions: 10 µM
FYN = biological target: T15, FYN (Homo sapiens, UniProt P06241); assay: kinome scan; type: binding; conditions: 10 µM
T15 construct: purchased DiscoverX (KINOMEscan)

IKK-alpha = biological target: T16, IKK-alpha (Homo sapiens, UniProt O15111); assay: kinome scan; type: binding; conditions: 10 µM
T16 construct: purchased DiscoverX (KINOMEscan)

[3] = biological target: T17, JAK2(JH1domain-catalytic) (Homo sapiens, UniProt O60674); assay: kinome scan; type: binding; conditions: 10 µM
T17 construct: JAK2(JH1domain-catalytic); purchased DiscoverX (KINOMEscan)

KIT = biological target: T18, KIT (Homo sapiens, UniProt P10721); assay: kinome scan; type: binding
T18 construct: purchased DiscoverX (KINOMEscan)

LIMK2 = biological target: T19, LIMK2 (Homo sapiens, UniProt P53671); assay: kinome scan; type: binding; conditions: 10 µM
T19 construct: purchased DiscoverX (KINOMEscan)

MEK5 = biological target: T20, MEK5 (Homo sapiens, UniProt Q13163); assay: kinome scan; type: binding; conditions: 10 µM
T20 construct: purchased DiscoverX (KINOMEscan)

MELK = biological target: T21, MELK (Homo sapiens, UniProt Q14680); assay: kinome scan; type: binding; conditions: 10 µM
T21 construct: purchased DiscoverX (KINOMEscan)

MET(Y1235D) = biological target: T22, MET(Y1235D) (Homo sapiens, UniProt P08581, Y1235D); assay: kinome scan; type: binding; conditions: 10 µM
T22 construct: purchased DiscoverX (KINOMEscan)

MRCKB = biological target: T23, MRCKB (Homo sapiens, UniProt Q9Y5S2); assay: kinome scan; type: binding; conditions: 10 µM
T23 construct: purchased DiscoverX (KINOMEscan)

MUSK = biological target: T24, MUSK (Homo sapiens, UniProt O15146); assay: kinome scan; type: binding; conditions: 10 µM
T24 construct: purchased DiscoverX (KINOMEscan)

MYLK4 = biological target: T25, MYLK4 (Homo sapiens, UniProt Q86YV6); assay: kinome scan; type: binding; conditions: 10 µM
T25 construct: purchased DiscoverX (KINOMEscan)

NEK11 = biological target: T26, NEK11 (Homo sapiens, UniProt Q8NG66); assay: kinome scan; type: binding; conditions: 10 µM
T26 construct: purchased DiscoverX (KINOMEscan)

NEK2 = biological target: T27, NEK2 (Homo sapiens, UniProt P51955); assay: kinome scan; type: binding; conditions: 10 µM
T27 construct: purchased DiscoverX (KINOMEscan)

NEK4 = biological target: T28, NEK4 (Homo sapiens, UniProt P51957); assay: kinome scan; type: binding; conditions: 10 µM
T28 construct: purchased DiscoverX (KINOMEscan)

NEK7 = biological target: T29, NEK7 (Homo sapiens, UniProt Q8TDX7); assay: kinome scan; type: binding; conditions: 10 µM
T29 construct: purchased DiscoverX (KINOMEscan)

PIK3C2B = biological target: T30, PIK3C2B (Homo sapiens, UniProt O00750); assay: kinome scan; type: binding; conditions: 10 µM
T30 construct: purchased DiscoverX (KINOMEscan)

PIK3C2G = biological target: T31, PIK3C2G (Homo sapiens, UniProt O75747); assay: kinome scan; type: binding
T31 construct: purchased DiscoverX (KINOMEscan)

PIK3CA = biological target: T32, PIK3CA (Homo sapiens, UniProt P42336); assay: kinome scan; type: binding; conditions: 10 µM
T32 construct: purchased DiscoverX (KINOMEscan)

[4] = biological target: T33, RSK3(Kin.Dom.2-C-terminal) (Homo sapiens, UniProt Q15349); assay: kinome scan; type: binding; conditions: 10 µM
T33 construct: RSK3(Kin.Dom.2-C-terminal); purchased DiscoverX (KINOMEscan)

SIK = biological target: T34, SIK (Homo sapiens, UniProt P57059); assay: kinome scan; type: binding; conditions: 10 µM
T34 construct: purchased DiscoverX (KINOMEscan)

STK35 = biological target: T35, STK35 (Homo sapiens, UniProt Q8TDR2); assay: kinome scan; type: binding; conditions: 10 µM
T35 construct: purchased DiscoverX (KINOMEscan)

STK36 = biological target: T36, STK36 (Homo sapiens, UniProt Q9NRP7); assay: kinome scan; type: binding; conditions: 10 µM
T36 construct: purchased DiscoverX (KINOMEscan)

TGFBR1 = biological target: T37, TGFBR1 (Homo sapiens, UniProt P36897); assay: kinome scan; type: binding; conditions: 10 µM
T37 construct: purchased DiscoverX (KINOMEscan)

ULK2 = biological target: T38, ULK2 (Homo sapiens, UniProt Q8IYT8); assay: kinome scan; type: binding; conditions: 10 µM
T38 construct: purchased DiscoverX (KINOMEscan)

Cruzain = tested on: Cruzain; design: method as in CHEMBL1613769; conditions: reported activity, data mining; ref CHEMBL1613769; cited from earlier work
[5] = tested on: Mitochondrial membrane potential; design: method as in CHEMBL1614240; conditions: reported activity, data mining; ref CHEMBL1614240; cited from earlier work

T14 sequence (P36888 27-993): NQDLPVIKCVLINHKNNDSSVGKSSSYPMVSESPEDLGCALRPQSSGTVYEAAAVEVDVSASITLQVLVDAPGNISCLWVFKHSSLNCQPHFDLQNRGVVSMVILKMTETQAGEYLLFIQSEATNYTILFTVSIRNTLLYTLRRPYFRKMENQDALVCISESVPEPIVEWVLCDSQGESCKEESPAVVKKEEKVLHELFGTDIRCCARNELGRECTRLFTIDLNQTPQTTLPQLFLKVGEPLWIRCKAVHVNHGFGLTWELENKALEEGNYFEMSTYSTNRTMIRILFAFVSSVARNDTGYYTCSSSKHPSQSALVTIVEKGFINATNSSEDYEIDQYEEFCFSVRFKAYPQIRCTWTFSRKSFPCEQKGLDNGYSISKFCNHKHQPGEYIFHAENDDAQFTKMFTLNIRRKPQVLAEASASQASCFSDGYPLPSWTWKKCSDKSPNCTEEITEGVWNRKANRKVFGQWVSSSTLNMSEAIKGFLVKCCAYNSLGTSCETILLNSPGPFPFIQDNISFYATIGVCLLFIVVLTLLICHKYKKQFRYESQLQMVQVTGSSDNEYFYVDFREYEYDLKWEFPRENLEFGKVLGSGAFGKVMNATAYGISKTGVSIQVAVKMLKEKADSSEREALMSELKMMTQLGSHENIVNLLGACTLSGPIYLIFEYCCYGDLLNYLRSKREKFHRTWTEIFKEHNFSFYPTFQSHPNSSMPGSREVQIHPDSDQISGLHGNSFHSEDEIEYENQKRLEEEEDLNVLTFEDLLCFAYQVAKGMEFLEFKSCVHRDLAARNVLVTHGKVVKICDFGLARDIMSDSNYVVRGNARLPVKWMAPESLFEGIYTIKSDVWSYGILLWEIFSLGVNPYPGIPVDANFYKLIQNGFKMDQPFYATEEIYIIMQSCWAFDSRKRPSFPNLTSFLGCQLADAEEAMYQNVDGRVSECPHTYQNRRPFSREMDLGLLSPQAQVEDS
T31 sequence (O75747 whole entry): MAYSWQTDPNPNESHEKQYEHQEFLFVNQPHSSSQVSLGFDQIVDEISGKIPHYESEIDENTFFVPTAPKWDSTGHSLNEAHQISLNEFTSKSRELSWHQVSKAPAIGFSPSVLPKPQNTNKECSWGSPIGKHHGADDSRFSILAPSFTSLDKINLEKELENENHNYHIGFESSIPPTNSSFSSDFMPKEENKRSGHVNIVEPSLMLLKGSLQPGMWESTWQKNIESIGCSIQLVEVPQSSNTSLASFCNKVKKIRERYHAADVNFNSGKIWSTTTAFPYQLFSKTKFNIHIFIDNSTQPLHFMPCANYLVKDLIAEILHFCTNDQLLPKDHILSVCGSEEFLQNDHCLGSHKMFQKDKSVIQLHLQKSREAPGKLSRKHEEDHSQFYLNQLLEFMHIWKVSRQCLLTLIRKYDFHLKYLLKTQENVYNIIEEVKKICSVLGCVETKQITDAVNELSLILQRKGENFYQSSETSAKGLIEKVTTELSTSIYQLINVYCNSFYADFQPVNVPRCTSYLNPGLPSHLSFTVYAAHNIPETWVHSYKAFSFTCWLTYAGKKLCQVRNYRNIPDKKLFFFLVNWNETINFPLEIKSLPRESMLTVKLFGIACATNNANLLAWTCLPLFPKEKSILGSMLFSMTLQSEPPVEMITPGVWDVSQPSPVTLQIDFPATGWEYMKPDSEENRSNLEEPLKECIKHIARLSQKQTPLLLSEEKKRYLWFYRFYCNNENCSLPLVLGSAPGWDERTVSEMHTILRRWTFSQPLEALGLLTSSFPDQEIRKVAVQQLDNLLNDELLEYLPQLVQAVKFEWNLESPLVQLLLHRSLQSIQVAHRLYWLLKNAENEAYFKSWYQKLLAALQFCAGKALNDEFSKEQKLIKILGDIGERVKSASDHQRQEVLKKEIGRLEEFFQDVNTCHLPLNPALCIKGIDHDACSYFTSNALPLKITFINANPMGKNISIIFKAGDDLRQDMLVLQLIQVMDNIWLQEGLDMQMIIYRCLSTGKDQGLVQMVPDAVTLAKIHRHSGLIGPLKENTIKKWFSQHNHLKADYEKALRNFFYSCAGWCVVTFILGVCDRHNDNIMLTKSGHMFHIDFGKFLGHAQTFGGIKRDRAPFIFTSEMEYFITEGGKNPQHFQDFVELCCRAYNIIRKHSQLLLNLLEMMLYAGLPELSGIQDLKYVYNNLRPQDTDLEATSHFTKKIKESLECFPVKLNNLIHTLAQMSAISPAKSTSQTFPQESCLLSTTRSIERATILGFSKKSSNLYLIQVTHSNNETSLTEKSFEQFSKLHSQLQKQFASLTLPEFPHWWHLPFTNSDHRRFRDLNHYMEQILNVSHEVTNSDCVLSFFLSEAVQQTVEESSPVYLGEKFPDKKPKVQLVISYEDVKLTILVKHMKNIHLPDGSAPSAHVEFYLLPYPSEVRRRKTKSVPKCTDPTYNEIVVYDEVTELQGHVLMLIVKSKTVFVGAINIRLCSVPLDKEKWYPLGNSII
T18 sequence (P10721 26-976): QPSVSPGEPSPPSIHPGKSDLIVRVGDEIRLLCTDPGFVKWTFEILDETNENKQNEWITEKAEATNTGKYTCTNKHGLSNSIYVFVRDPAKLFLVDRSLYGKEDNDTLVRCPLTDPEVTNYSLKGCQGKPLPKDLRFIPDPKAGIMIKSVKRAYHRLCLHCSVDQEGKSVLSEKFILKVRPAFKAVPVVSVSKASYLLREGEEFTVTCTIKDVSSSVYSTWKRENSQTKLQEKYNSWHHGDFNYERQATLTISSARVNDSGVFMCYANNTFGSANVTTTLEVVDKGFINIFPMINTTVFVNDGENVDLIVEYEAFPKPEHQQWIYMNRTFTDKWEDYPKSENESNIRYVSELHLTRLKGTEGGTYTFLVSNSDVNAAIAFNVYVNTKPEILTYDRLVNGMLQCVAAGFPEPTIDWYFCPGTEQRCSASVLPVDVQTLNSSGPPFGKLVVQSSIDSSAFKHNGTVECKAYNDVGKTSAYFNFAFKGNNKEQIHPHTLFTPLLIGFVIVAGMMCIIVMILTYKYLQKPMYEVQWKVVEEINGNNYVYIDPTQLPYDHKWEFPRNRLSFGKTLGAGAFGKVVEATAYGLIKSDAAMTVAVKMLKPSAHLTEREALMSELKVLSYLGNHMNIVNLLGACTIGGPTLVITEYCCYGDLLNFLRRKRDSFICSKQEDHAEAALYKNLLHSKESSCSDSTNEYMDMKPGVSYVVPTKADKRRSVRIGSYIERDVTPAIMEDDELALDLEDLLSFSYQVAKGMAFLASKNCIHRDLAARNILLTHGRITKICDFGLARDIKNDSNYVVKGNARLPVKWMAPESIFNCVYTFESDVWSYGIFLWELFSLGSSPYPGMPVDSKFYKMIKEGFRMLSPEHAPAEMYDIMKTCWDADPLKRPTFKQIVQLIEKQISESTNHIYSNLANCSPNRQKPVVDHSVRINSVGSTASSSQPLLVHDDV
T29 sequence (Q8TDX7 whole entry): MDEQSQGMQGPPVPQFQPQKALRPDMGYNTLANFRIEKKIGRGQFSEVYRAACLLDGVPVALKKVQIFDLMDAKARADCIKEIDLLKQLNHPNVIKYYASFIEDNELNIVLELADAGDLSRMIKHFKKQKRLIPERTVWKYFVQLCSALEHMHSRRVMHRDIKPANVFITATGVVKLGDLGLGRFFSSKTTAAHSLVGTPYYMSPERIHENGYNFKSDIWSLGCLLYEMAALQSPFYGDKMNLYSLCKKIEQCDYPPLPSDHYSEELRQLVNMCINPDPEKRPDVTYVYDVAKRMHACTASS
T5 sequence (P41240 whole entry): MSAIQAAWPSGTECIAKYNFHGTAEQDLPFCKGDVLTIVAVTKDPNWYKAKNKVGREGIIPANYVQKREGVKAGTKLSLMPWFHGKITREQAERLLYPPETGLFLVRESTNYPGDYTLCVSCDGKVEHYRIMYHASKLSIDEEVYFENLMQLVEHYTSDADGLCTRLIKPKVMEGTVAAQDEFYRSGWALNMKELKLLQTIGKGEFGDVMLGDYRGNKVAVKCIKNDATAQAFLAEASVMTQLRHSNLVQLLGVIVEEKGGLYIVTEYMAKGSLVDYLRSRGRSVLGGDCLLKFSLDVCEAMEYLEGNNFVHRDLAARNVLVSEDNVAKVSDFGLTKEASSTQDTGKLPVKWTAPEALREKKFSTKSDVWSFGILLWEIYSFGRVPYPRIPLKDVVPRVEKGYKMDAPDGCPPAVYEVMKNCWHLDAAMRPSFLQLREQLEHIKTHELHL
T37 sequence (P36897 34-503): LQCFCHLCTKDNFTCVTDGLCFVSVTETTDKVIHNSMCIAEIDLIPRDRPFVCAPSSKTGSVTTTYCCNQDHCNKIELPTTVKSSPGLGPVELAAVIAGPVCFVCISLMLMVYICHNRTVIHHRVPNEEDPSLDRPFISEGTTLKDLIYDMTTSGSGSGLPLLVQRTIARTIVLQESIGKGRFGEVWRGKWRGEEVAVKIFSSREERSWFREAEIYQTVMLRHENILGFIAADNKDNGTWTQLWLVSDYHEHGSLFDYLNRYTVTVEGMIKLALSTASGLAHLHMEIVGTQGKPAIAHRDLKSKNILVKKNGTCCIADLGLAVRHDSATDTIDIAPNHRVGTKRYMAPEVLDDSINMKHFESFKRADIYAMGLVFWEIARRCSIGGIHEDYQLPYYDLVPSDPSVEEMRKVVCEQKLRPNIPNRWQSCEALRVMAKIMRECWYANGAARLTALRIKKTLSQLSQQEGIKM
T27 sequence (P51955 whole entry): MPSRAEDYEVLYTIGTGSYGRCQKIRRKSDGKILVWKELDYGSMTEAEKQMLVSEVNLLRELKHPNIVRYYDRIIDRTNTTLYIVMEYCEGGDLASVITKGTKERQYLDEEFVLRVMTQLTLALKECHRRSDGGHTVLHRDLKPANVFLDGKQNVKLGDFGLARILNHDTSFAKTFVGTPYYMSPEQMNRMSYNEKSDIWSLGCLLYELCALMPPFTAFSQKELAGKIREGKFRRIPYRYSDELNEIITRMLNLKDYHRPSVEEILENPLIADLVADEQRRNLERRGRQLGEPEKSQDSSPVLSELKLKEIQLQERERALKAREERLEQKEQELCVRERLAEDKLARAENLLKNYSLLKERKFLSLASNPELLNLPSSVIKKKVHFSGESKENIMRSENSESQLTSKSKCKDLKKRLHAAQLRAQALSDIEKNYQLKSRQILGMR

Nc1ccc(N=Nc2ccccc2)c(N)n1 [phenazopyridine, 2,6-diamino-3-(phenylazo)pyridine]
kinase inhibition [1]: 96
kinase inhibition [2]: 90
kinase inhibition (BMPR1A): 98
kinase inhibition (BRK): 100
kinase inhibition (CSK): 100
kinase inhibition (CSNK2A1): 86
kinase inhibition (DLK): 73
kinase inhibition (DMPK): 89
kinase inhibition (EGFR(L858R)): 100
kinase inhibition (EPHB6): 67
kinase inhibition (ERBB4): 78
kinase inhibition (ERK3): 95
kinase inhibition (ERN1): 82
remaining binding (% of control) (FLT3; 10 µM): 25
remaining binding at 10 µM (FLT3; read-out: % Of control): 25%
remaining binding (% of control) (FLT3(ITD)): 55
remaining binding (% of control) (FYN): 100
kinase inhibition (IKK-alpha): 64
kinase inhibition [3]: 82
percent of control binding remaining (KIT; KIT, 10 µM): 41
remaining binding at 10 µM (KIT; c-KIT wt, read-out: Kinome scan (% of control at 10 µM)): 41%
kinase inhibition (LIMK2): 96
kinase inhibition (MEK5): 90
kinase inhibition (MELK): 79
kinase inhibition (MET(Y1235D)): 100
kinase inhibition (MRCKB): 100
kinase inhibition (MUSK): 91
kinase inhibition (MYLK4): 87
kinase inhibition (NEK11): 100
kinase inhibition (NEK2): 81
kinase inhibition (NEK4): 100
kinase inhibition (NEK7): 100
kinase inhibition (PIK3C2B): 70
remaining activity (PIK3C2G; 10 µM): 24
remaining binding at 10 µM (PIK3C2G; read-out: % Of control): 24%
kinase inhibition (PIK3CA): 84
kinase inhibition [4]: 100
kinase inhibition (SIK): 100
kinase inhibition (STK35): 93
kinase inhibition (STK36): 99
kinase inhibition (TGFBR1): 100
kinase inhibition (ULK2): 96
Concentration (Cruzain): 20 µM
Concentration [5]: 16.7 µM
